# Laboratory results as given in US11998539B2, “Substituted aminoquinolones as DGKalpha inhibitors for immune activation” (Bayer Aktiengesellschaft, priority 2019, dated 2024).
# pIC50: −log10 of the molar value.
# Target: DGKα (Homo sapiens (Human), UniProt P23743)
# Experiment: Human DGKα kinase activity inhibition assay (ADP-Glo)
# Type: biochemical
# Conditions: recombinant full-length human DGKα, 55 μM ATP, 7 μM 1,2-dioleoyl-sn-glycerol, read-out: IC50 values of examples in in vitro human DGKa kinase activity inhibition assays
# Procedure, shortened: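 Recombinant full-length human DGKα (C-terminal FLAG, from insect cells) phosphorylated 1,2-dioleoyl-sn-glycerol presented in octyl-glucopyranoside micelles. ADP formed was quantified by ADP-Glo luminescence. Compounds were added from 100-fold DMSO stocks.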
# Sequence of DGKα (P23743 other isoform, or with tags, fused parts or gaps): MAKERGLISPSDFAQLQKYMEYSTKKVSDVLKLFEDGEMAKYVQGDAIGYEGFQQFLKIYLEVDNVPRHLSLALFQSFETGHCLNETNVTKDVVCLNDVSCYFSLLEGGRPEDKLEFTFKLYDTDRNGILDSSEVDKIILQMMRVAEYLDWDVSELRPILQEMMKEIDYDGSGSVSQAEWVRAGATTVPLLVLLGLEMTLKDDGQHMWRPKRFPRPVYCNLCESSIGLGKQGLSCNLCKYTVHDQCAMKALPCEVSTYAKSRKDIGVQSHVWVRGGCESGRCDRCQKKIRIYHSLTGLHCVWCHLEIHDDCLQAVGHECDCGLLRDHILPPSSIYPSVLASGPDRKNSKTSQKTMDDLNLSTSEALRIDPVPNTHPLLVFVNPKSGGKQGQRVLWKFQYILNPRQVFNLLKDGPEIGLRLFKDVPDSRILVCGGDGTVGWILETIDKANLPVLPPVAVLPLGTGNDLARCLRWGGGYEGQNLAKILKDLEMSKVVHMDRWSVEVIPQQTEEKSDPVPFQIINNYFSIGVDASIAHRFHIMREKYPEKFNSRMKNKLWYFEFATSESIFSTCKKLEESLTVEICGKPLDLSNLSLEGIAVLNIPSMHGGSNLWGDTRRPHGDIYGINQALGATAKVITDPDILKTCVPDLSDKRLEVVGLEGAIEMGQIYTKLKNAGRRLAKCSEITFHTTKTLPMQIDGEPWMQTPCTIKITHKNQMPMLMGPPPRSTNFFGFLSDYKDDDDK
row,Structure (SMILES),pIC50
1,"Cn1c(=O)c(C(N)=O)c(N2CCC(c3ccc(OC(F)(F)F)cc3)CC2)c2ccccc21 [Example 108, 1-methyl-2-oxo-4-{4-[4-(trifluoromethoxy)phenyl]piperidin-1-yl}-1,2-dihydroquinoline-3-carboxamide]",8.74
2,"Cn1c(=O)c(C(N)=O)c(N2CCC(c3nc4cc(F)c(F)cc4o3)CC2)c2ccccc21 [Example 109, 4-[4-(5,6-difluoro-1,3-benzoxazol-2-yl)piperidin-1-yl]-1-methyl-2-oxo-1,2-dihydroquinoline-3-carboxamide]",8.68
3,"Cc1ccc2oc(C3(C)CCN(c4c(C#N)c(=O)n(C)c5cc(Br)ccc45)CC3)nc2c1 [Example 110, 7-bromo-1-methyl-4-[4-methyl-4-(5-methyl-1,3-benzoxazol-2-yl)piperidin-1-yl]-2-oxo-1,2-dihydroquinoline-3-carbonitrile]",8.59
4,"COc1ccc(C2CCN(c3c(C(N)=O)c(=O)n(C)c4ccccc34)CC2)cc1 [Example 112, 4-[4-(4-methoxyphenyl)piperidin-1-yl]-1-methyl-2-oxo-1,2-dihydroquinoline-3-carboxamide]",8.35
5,"Cn1c(=O)c(C(N)=O)c(N2CCC(c3nc4ccccc4s3)CC2)c2ccccc21 [Example 113, 4-[4-(1,3-benzothiazol-2-yl)piperidin-1-yl]-1-methyl-2-oxo-1,2-dihydroquinoline-3-carboxamide]",8.46
6,"Cn1c(=O)c(C(N)=O)c(N2CCC(c3ccccc3)CC2)c2ccccc21 [Example 114, 1-methyl-2-oxo-4-(4-phenylpiperidin-1-yl)-1,2-dihydroquinoline-3-carboxamide]",7.82
7,"COc1ccc(C2CCN(c3c(C(N)=O)c(=O)n(C)c4cc(C5COC5)ccc34)CC2)cc1 [Example 115, 4-[4-(4-methoxyphenyl)piperidin-1-yl]-1-methyl-7-(oxetan-3-yl)-2-oxo-1,2-dihydroquinoline-3-carboxamide]",7.70
8,"Cn1c(=O)c(C(N)=O)c(N2CCC(c3nc4ccccc4s3)CC2)c2ccc(N3CCCC3=O)cc21 [Example 116, 4-[4-(1,3-benzothiazol-2-yl)piperidin-1-yl]-1-methyl-2-oxo-7-(2-oxopyrrolidin-1-yl)-1,2-dihydroquinoline-3-carboxamide]",7.44
9,"CCC1(c2nc3cc(C)ccc3o2)CCN(c2c(C#N)c(=O)n(C)c3ccccc23)CC1 [Example 140, 4-[4-ethyl-4-(5-methyl-1,3-benzoxazol-2-yl)piperidin-1-yl]-1-methyl-2-oxo-1,2-dihydroquinoline-3-carbonitrile]",8.80
10,"CCC1(c2nc3cc(C)ccc3o2)CCN(c2c(C#N)c(=O)n(C)c3cc(Br)ccc23)CC1 [Example 141, 7-bromo-4-[4-ethyl-4-(5-methyl-1,3-benzoxazol-2-yl)piperidin-1-yl]-1-methyl-2-oxo-1,2-dihydroquinoline-3-carbonitrile]",8.25
11,"COc1ccc(C2CCN(c3c(C#N)c(=O)n(C)c4ccccc34)CC2)cn1 [Example 142, 4-[4-(6-methoxypyridin-3-yl)piperidin-1-yl]-1-methyl-2-oxo-1,2-dihydroquinoline-3-carbonitrile]",7.24
12,"Cc1ccc(C2CCN(c3c(C#N)c(=O)n(C)c4ccccc34)CC2)cn1 [Example 143, 1-methyl-4-[4-(6-methylpyridin-3-yl)piperidin-1-yl]-2-oxo-1,2-dihydroquinoline-3-carbonitrile]",6.26
13,"Cn1c(=O)c(C#N)c(N2CCC(c3cccnc3)CC2)c2ccccc21 [Example 144, 1-methyl-2-oxo-4-[4-(pyridin-3-yl)piperidin-1-yl]-1,2-dihydroquinoline-3-carbonitrile]",6.05
14,"CNC(=O)c1c(N2CCC(c3nc4ccccc4s3)CC2)c2ccccc2n(C)c1=O [Example 145, 4-[4-(1,3-benzothiazol-2-yl)piperidin-1-yl]-N,1-dimethyl-2-oxo-1,2-dihydroquinoline-3-carboxamide]",7.39
15,"Cn1c(C2CCN(c3c(C#N)c(=O)n(C)c4ccccc34)CC2)nc2ccccc21 [Example 147, 1-methyl-4-[4-(1-methyl-1H-benzimidazol-2-yl)piperidin-1-yl]-2-oxo-1,2-dihydroquinoline-3-carbonitrile]",6.45
16,"CCCc1noc(C2CCN(c3c(C#N)c(=O)n(C)c4ccccc34)CC2)n1 [Example 148, 1-methyl-2-oxo-4-[4-(3-propyl-1,2,4-oxadiazol-5-yl)piperidin-1-yl]-1,2-dihydroquinoline-3-carbonitrile]",6.43
17,"Cn1nccc1C1CCN(c2c(C#N)c(=O)n(C)c3ccccc23)CC1 [Example 149, 1-methyl-4-[4-(1-methyl-1H-pyrazol-5-yl)piperidin-1-yl]-2-oxo-1,2-dihydroquinoline-3-carbonitrile]",5.96
18,"Cn1c(=O)c(C#N)c(N2CCC(c3cnccn3)CC2)c2ccccc21 [Example 150, 1-methyl-2-oxo-4-[4-(pyrazin-2-yl)piperidin-1-yl]-1,2-dihydroquinoline-3-carbonitrile]",5.82
19,"Cn1c(=O)c(C#N)c(N2CCC(O)(c3ccc(Cl)cc3)CC2)c2ccccc21 [Example 151, 4-[4-(4-chlorophenyl)-4-hydroxypiperidin-1-yl]-1-methyl-2-oxo-1,2-dihydroquinoline-3-carbonitrile]",6.31
20,"Cn1c(=O)c(C#N)c(N2CCC(O)(c3cccc(C(F)(F)F)c3)CC2)c2ccccc21 [Example 152, 4-{4-hydroxy-4-[3-(trifluoromethyl)phenyl]piperidin-1-yl}-1-methyl-2-oxo-1,2-dihydroquinoline-3-carbonitrile]",5.97
21,"COc1ccc(C2CCN(c3c(C#N)c(=O)n(C)c4c(F)cccc34)CC2)cc1 [Example 153, 8-fluoro-4-[4-(4-methoxyphenyl)piperidin-1-yl]-1-methyl-2-oxo-1,2-dihydroquinoline-3-carbonitrile]",7.35
22,"Cn1c(=O)c(C#N)c(N2CCC(c3nc4ccccc4s3)CC2)c2cccc(F)c21 [Example 154, 4-[4-(1,3-benzothiazol-2-yl)piperidin-1-yl]-8-fluoro-1-methyl-2-oxo-1,2-dihydroquinoline-3-carbonitrile]",7.47
23,"Cn1c(=O)c(C#N)c(N2CCC(c3nc4ccccc4o3)CC2)c2cccc(F)c21 [Example 155, 4-[4-(1,3-benzoxazol-2-yl)piperidin-1-yl]-8-fluoro-1-methyl-2-oxo-1,2-dihydroquinoline-3-carbonitrile]",7.22
24,"Cn1c(=O)c(C#N)c(N2CCC(C)(c3nc4ccccc4o3)CC2)c2cccc(Br)c21 [Example 156, 4-[4-(1,3-benzoxazol-2-yl)-4-methylpiperidin-1-yl]-8-bromo-1-methyl-2-oxo-1,2-dihydroquinoline-3-carbonitrile]",6.74
25,"Cn1c(=O)c(C#N)c(N2CCC(c3nc4ccc(Cl)cc4o3)CC2)c2cccc(Br)c21 [Example 157, 8-bromo-4-[4-(6-chloro-1,3-benzoxazol-2-yl)piperidin-1-yl]-1-methyl-2-oxo-1,2-dihydroquinoline-3-carbonitrile]",6.60
26,"Cc1ccc2oc(C3(C)CCN(c4c(C#N)c(=O)n(C)c5c(Br)cccc45)CC3)nc2c1 [Example 158, 8-bromo-1-methyl-4-[4-methyl-4-(5-methyl-1,3-benzoxazol-2-yl)piperidin-1-yl]-2-oxo-1,2-dihydroquinoline-3-carbonitrile]",6.52
